{
  "source": "patent US20260183408A1",
  "about": "“POLYPEPTIDE AND USE THEREOF” (SHENZHEN CHENYANG BIOLOGICAL TECHNOLOGY CO., LTD, priority 2022, published 2026)",
  "key": {"[1]": {"tested_on": "CRS mice", "assay": "Forced swimming test (FST)", "type": "in vivo, mouse", "settings": "single intraperitoneal 3 nmol/g, 1 hour after treatment, compared with TAT-treated mice (FIG. 12)", "description": "The C57BL/6J mice were horizontally fixed for 6 h (from 10 to 16 o'clock) in a first acrylic restraint which is cylindrical and flat-bottomed (25×90 mm) every day for 2 weeks. The filter had several slots which could adapt to the size of each mouse to firmly restrain the mouse and inhibit body movements of the limb and trunk without causing pain. Immediately after being restrained, the mice were sent back to their cages. Unrestrained mice (control) stayed in their cages when no CRS procedure was performed. Neither the control mice nor the CRS mice could have access to food and water during the CRS exposure.\nThe C57BL/6J mice were subjected to various stress including restraint (for 4 h), cage tilting (for 45 times, with 12 h each time), light-dark cycle reversal (once), flash (for 12 h), and dirty cage (for 2 times, with 14 h each time). The protocol lasted 6 weeks. Control mice were not subjected to corresponding stress.\nThe mice were treated with TAT or TAT-D2R-KL (single intraperitoneal administration at 3 nmol/g in both cases). […]\nFST: The mice were placed in a cylinder (having a height of 70 cm and a diameter of 30 cm) made of organic glass and filled with water (with water temperature at 23±1° C.), wherein the water level was more than 30 cm from the bottom. The mice were recorded in video for 5 min, then the video was analyzed, and the immobility time was recorded. […]"}, "[2]": {"target": "T1, D2R/5-HT2CR complex (Homo sapiens, UniProt P28335)", "T1 construct": "host or cells: human 293T cells", "T1 sequence (P28335 33-458)": "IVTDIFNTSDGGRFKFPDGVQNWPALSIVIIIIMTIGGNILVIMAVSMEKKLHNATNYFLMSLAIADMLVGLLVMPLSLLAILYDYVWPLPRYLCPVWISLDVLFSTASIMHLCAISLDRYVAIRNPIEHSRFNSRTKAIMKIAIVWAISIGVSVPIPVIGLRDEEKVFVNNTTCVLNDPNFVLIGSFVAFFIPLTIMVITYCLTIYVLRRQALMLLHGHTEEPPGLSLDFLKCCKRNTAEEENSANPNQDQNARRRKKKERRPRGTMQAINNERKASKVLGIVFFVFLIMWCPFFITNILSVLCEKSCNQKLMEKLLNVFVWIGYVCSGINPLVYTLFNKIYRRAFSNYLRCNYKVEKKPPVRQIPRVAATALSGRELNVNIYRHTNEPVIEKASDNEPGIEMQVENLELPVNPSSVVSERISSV", "assay": "Co-immunoprecipitation / Western blotting of polypeptide-treated 293T cells", "type": "cell-based", "settings": "293T cells transfected with 5-HT2CR and D2R, in the presence of 5-HT2CR and D2R agonists, TAT as control (FIG. 6)", "description": "Co-immunoprecipitation was performed using protein samples (with 100-500 μg protein) from the hippocampal tissue of the Balb/c mice. Mouse monoclonal antibodies against both 5-HT2CR and D2R, D2R, or 5-HT2CR were used for precipitation with 25 μl of the slurry of protein A/G+agarose beads (SantaCruz Biotechnology, sc-2001).\nWestern blotting analysis after precipitation: Denatured (at 100° C. for 10 min) proteins were separated on an 8% SDS-PAGE gel, then transferred to a nitrocellulose membrane, which was then blocked with skim milk in TBST (Tris-buffered saline with 0.1% Tween 20). Next, incubation was carried out with the primary antibodies at 4° C. overnight. Finally, treatment with an HRP-conjugated secondary antibody were performed for 1 h, signals were detected using the ECL UltraSignal chemiluminescence kit (4A Biotech, cat. no. 4AW011-500), and the bands were analyzed for densities using the Image Lab software.\nNext, the 293T cells were treated with TAT-D2R-KL in the presence of 5-HT2CR and D2R agonists, while treatment with TAT was used as a control. The specific process was shown in FIG. 5, where the human 293T cell line was cultured in a high-glucose modified Eagle's medium (DMEM) supplemented with 10% fetal bovine serum (FBS). The cells were maintained in an atmosphere of 95% air and 5% carbon dioxide in an incubator at 37° C. […]"}},
  "data": [
    {"substance": "TAT-D2R-KL: C-terminus of the KL (K226-L240) region of D2R fused to the transduction domain of HIV-1 Tat protein (SEQ ID NO: 5)", "values": [
      {"measurement": "immobility time (FST)", "setting": "[1]", "result": "significantly reduced"},
      {"measurement": "interaction between 5-HT2CR and D2R", "setting": "[2]", "result": "significantly reduced"}
    ]}
  ]
}
